Test results reported in PubChem BioAssay AID330 (DTP/NCI, 2004).
“And” between values parts separate entries of the source, which are not always exact repeats. Equal entries are not always repeated. Toxic doses and inconclusive results are not listed. Rule for the calls: active = survival T/C of 150% or more; inactive = T/C below 125% in these data.

Test system: P388 leukemia ip, CD2F1 mice, survival T/C
Assay: NCI In Vivo Anticancer Drug Screen. Data for tumor model P388 Leukemia (intraperitoneal) in CD2F1 (CDF1) mice
Conditions: endpoint: median survival time, higher = longer survival
Method in brief: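 Mice carrying the transplanted tumor received test compound or vehicle. Survival was recorded in each group, and the value is the treated-group measurement divided by that of the vehicle-treated control group.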

[1] = dose: 60.0 mg/kg/injection, schedule: Q01DX005 (ip), vehicle: Klucel (hydroxypropylcellulose) (HPC)
[2] = dose: 120.0 mg/kg/injection, schedule: Q01DX005 (ip), vehicle: Klucel (hydroxypropylcellulose) (HPC)
[3] = dose: 240.0 mg/kg/injection, schedule: Q01DX005 (ip), vehicle: Klucel (hydroxypropylcellulose) (HPC)
[4] = dose: 50.0 mg/kg/injection, schedule: Q01DX005 (ip), vehicle: saline with Tween-80
[5] = dose: 200.0 mg/kg/injection, schedule: Q01DX005 (ip), vehicle: saline with Tween-80
[6] = dose: 50.0 mg/kg/injection, schedule: Q01DX001 (ip), vehicle: Klucel (hydroxypropylcellulose) (HPC)
[7] = dose: 100.0 mg/kg/injection, schedule: Q01DX001 (ip), vehicle: Klucel (hydroxypropylcellulose) (HPC)
[8] = dose: 50.0 mg/kg/injection, schedule: Q01DX005 (ip), vehicle: Klucel (hydroxypropylcellulose) (HPC)
[9] = dose: 100.0 mg/kg/injection, schedule: Q01DX005 (ip), vehicle: Klucel (hydroxypropylcellulose) (HPC)
[10] = dose: 200.0 mg/kg/injection, schedule: Q01DX005 (ip), vehicle: Klucel (hydroxypropylcellulose) (HPC)
[11] = dose: 25.0 mg/kg/injection, schedule: Q04DX002 (ip), vehicle: saline with Tween-80
[12] = dose: 50.0 mg/kg/injection, schedule: Q04DX002 (ip), vehicle: saline with Tween-80
[13] = dose: 60.0 mg/kg/injection, schedule: Q01DX005 (ip), vehicle: saline with Tween-80
[14] = dose: 120.0 mg/kg/injection, schedule: Q01DX005 (ip), vehicle: saline with Tween-80
[15] = dose: 100.0 mg/kg/injection, schedule: Q01DX005 (ip), vehicle: saline with Tween-80
[16] = dose: 100.0 mg/kg/injection, schedule: Q04DX003 (ip), vehicle: saline with Tween-80
[17] = dose: 200.0 mg/kg/injection, schedule: Q04DX003 (ip), vehicle: saline with Tween-80
[18] = dose: 240.0 mg/kg/injection, schedule: Q01DX005 (ip), vehicle: saline with Tween-80

Measured: T/C

O=C(CN1CCC(O)(c2ccc(F)cc2)CC1)N1CCN(C/C=C/c2ccccc2)CC1
inactive: [1] 96 % of control | [2] 95 % of control | [3] 95 % of control

O=[N+]([O-])c1ccc(-c2noc(-c3cccs3)n2)cc1
inactive: [1] 95 % of control | [2] 101 % of control | [3] 97 % of control

COc1ccc2c(c1O)-c1cccc3c1C(C2)N(CCOCCCl)CC3 (stereo unspecified)
inactive: dose: 12.5 mg/kg/injection, schedule: Q04DX003 (ip), vehicle: water 99 % of control | dose: 25.0 mg/kg/injection, schedule: Q04DX003 (ip), vehicle: water 107 % of control | dose: 50.0 mg/kg/injection, schedule: Q04DX003 (ip), vehicle: water 101 % of control | dose: 100.0 mg/kg/injection, schedule: Q04DX003 (ip), vehicle: water 104 % of control

CN(C)P1(=O)NCC(C)(C)CO1 (stereo unspecified)
inactive: dose: 50.0 mg/kg/injection, schedule: Q01DX005 (ip), vehicle: saline 104 % of control | dose: 100.0 mg/kg/injection, schedule: Q01DX005 (ip), vehicle: saline 96 % of control | dose: 200.0 mg/kg/injection, schedule: Q01DX005 (ip), vehicle: saline 96 % of control

N#CCCCOCCCOCCCOCCCOCCCOCCCC#N
inactive: dose: 8.75 mg/kg/injection, schedule: Q01DX005 (ip), vehicle: saline with Tween-80 102 % of control | dose: 17.5 mg/kg/injection, schedule: Q01DX005 (ip), vehicle: saline with Tween-80 100 % of control | dose: 35.0 mg/kg/injection, schedule: Q01DX005 (ip), vehicle: saline with Tween-80 100 % of control | [4] 121 % of control | dose: 70.0 mg/kg/injection, schedule: Q01DX005 (ip), vehicle: saline with Tween-80 108 % of control | [5] 110 % of control

O=C(CCl)NNc1cccc(Cl)n1
inactive: [6] 98 % of control | [7] 98 % of control | dose: 200.0 mg/kg/injection, schedule: Q01DX001 (ip), vehicle: Klucel (hydroxypropylcellulose) (HPC) 93 % of control

CCOC(=O)[C]1([Pb]([CH3])([CH3])[CH3])N=NC(C(=O)OC)=C1C(=O)OC (stereo unspecified)
inactive: dose: 0.78 mg/kg/injection, schedule: Q01DX009 (ip), vehicle: saline 89 % of control | dose: 1.56 mg/kg/injection, schedule: Q01DX009 (ip), vehicle: saline 90 % of control | dose: 3.12 mg/kg/injection, schedule: Q01DX009 (ip), vehicle: saline 90 % of control

Cc1ccc(O)c(C(=NCCN=C(c2ccccc2)c2cc(C)ccc2O)c2ccccc2)c1.[Cu]
inactive: dose: 25.0 mg/kg/injection, schedule: Q01DX005 (ip), vehicle: Klucel (hydroxypropylcellulose) (HPC) 98 % of control | [8] 98 % of control | [9] 96 % of control | [10] 90 % of control

CC(=O)OC(C)C(O)C(O)C(/C=C/C1CC=CC(=O)O1)OC(C)=O (stereo unspecified)
inactive: dose: 8.25 mg/kg/injection, schedule: Q01DX005 (ip), vehicle: Klucel (hydroxypropylcellulose) (HPC) 108 % of control | dose: 16.5 mg/kg/injection, schedule: Q01DX005 (ip), vehicle: Klucel (hydroxypropylcellulose) (HPC) 104 % of control | dose: 33.0 mg/kg/injection, schedule: Q01DX005 (ip), vehicle: Klucel (hydroxypropylcellulose) (HPC) 104 % of control | dose: 66.0 mg/kg/injection, schedule: Q01DX005 (ip), vehicle: Klucel (hydroxypropylcellulose) (HPC) 95 % of control

COC1CC(N=S(=O)(O)c2ccc(N)cc2)[N-]C(OC)N1.[Ag+] (stereo unspecified)
inactive: dose: 50.0 mg/kg/injection, schedule: Q01DX009 (ip), vehicle: Klucel (hydroxypropylcellulose) (HPC) 97 % of control | dose: 100.0 mg/kg/injection, schedule: Q01DX009 (ip), vehicle: Klucel (hydroxypropylcellulose) (HPC) 93 % of control | dose: 200.0 mg/kg/injection, schedule: Q01DX009 (ip), vehicle: Klucel (hydroxypropylcellulose) (HPC) 102 % of control

O=C1C=CC(=O)C1=Cc1ccc([N+](=O)[O-])cc1
inactive: dose: 2.5 mg/kg/injection, schedule: Q04DX002 (ip), vehicle: saline with Tween-80 100 % of control | dose: 5.0 mg/kg/injection, schedule: Q04DX002 (ip), vehicle: saline with Tween-80 104 % of control | dose: 10.0 mg/kg/injection, schedule: Q04DX002 (ip), vehicle: saline with Tween-80 101 % of control | [11] 96 % of control | [12] 98 % of control

CSc1nc2c(Cl)ncnc2s1
inactive: [13] 96 % of control | [14] 96 % of control

Brc1ncc2[nH]cnc2n1
inactive: [4] 99 % of control | [15] 100 % of control

O=C(O)C(CS)NC1CC(=O)N(Cc2ccccc2)C1=O (stereo unspecified)
inactive: [8] 110 % of control | [9] 103 % of control | [10] 103 % of control

N#Cc1ncc(Cl)c2ccccc12
inactive: dose: 50.0 mg/kg/injection, schedule: Q01DX009 (ip), vehicle: suspension in saline 90 % of control | dose: 100.0 mg/kg/injection, schedule: Q01DX009 (ip), vehicle: suspension in saline 87 % of control | dose: 200.0 mg/kg/injection, schedule: Q01DX009 (ip), vehicle: suspension in saline 97 % of control

COc1ccc2nc3cc(Cl)ccc3c(NCCCCNc3c4ccc(Cl)cc4nc4ccc(OC)nc34)c2n1
inactive: [16] 102 % of control | [17] 118 % of control

CN(C)c1c2c(oc(=O)c1Cl)-c1ccccc1SCC2
inactive: [13] 101 % of control | [14] 100 % of control | [18] 91 % of control

CN(C)Cc1onc(-c2c(Cl)cccc2Cl)c1C(=O)O
inactive: [13] 103 % of control | [14] 95 % of control

COc1ccc(NC(=S)Nc2ccccn2)cc1
inactive: [16] 108 % of control | [17] 95 % of control | dose: 400.0 mg/kg/injection, schedule: Q04DX003 (ip), vehicle: saline with Tween-80 112 % of control

CCN(CC)N=Nc1ccc(NC(C)=O)cc1
inactive: dose: 6.25 mg/kg/injection, schedule: Q04DX003 (ip), vehicle: Klucel (hydroxypropylcellulose) (HPC) 102 % of control | dose: 12.5 mg/kg/injection, schedule: Q04DX003 (ip), vehicle: Klucel (hydroxypropylcellulose) (HPC) 101 % of control | dose: 25.0 mg/kg/injection, schedule: Q04DX003 (ip), vehicle: Klucel (hydroxypropylcellulose) (HPC) 102 % of control

COC(=O)c1nnn(-c2cccc(C(F)(F)F)c2)c1C(=O)c1ccc(Cl)c(Cl)c1
inactive: [13] 99 % of control | [14] 100 % of control | [18] 92 % of control

N#CCC1CCCC1=O (stereo unspecified)
inactive: dose: 50.0 mg/kg/injection, schedule: Q01DX009 (ip), vehicle: saline with Tween-80 103 % of control | dose: 100.0 mg/kg/injection, schedule: Q01DX009 (ip), vehicle: saline with Tween-80 99 % of control

CC(=O)OCc1c(-c2ccccc2)nc2n1CCS2
inactive: dose: 12.5 mg/kg/injection, schedule: Q01DX001 (ip), vehicle: Klucel (hydroxypropylcellulose) (HPC) 101 % of control and 95 % of control | dose: 25.0 mg/kg/injection, schedule: Q01DX001 (ip), vehicle: Klucel (hydroxypropylcellulose) (HPC) 114 % of control and 106 % of control | [6] 108 % of control and 107 % of control | [7] 86 % of control

COc1ccc(C2=C(c3ccccc3)C(C)(C)Oc3ccc4ccccc4c32)cc1
inactive: [8] 95 % of control | [9] 95 % of control | [10] 104 % of control

Cc1cc(=O)n(-c2ccc([N+](=O)[O-])cc2)c(C)c1C(=O)O
inactive: [4] 98 % of control | [15] 103 % of control | [5] 106 % of control

c1c[nH]c2c3ccncc3c3ncnc3c2c1
inactive: [8] 97 % of control | [9] 88 % of control

CN(/N=C(C#N)/C(N)=N/NC(=O)c1ccccc1)c1ccccc1
inactive: [11] 103 % of control | [12] 96 % of control | dose: 100.0 mg/kg/injection, schedule: Q04DX002 (ip), vehicle: saline with Tween-80 96 % of control

Cc1cccc(Nc2c(C(=O)O)cnc3cc4c(cc23)OCO4)c1
inactive: [1] 94 % of control | [2] 94 % of control
